# Source: patent publication US11104926B1, “Pro-fluorophore compounds and use thereof” (Vanderbilt University, priority 2018, dated 2021)
# Entries after “also recorded” stand apart in the source; their conditions may differ.
# Assays:
# [1] = tested on: porcine liver esterase (PLE); assay: In vitro activation of rhodamine-amide pro-fluorophores by PLE (kinetic fluorescence plate assay); format: biochemical; conditions: for conversion to the fluorescent Rhodamine 110 by PLE (in words): 10 μM, 2 min, 22° C., 30 nM PLE (FIG. 2B); for Km: Table 1, PLE activation; for quality as PLE substrate (in words): in vitro and in cells, comparison within the library
# Procedure: To investigate the ability of PLE to activate various rhodamine-amide pro-fluorophores, the compounds were dissolved in DMSO to a concentration of 100 mM and serially diluted in DMSO in 10, 3-fold steps. The compounds were then added to the well of a low volume, cyclic olefin copolymer 384-well plate (Labcyte). Forty nL/well of pro-fluorophore solution were transferred to black-walled, clear-bottom, polystyrene 384-well plates (Greiner) using an Echo plate reformatter (Labcyte). Following compound transfer, […] of phosphate-buffered saline (PBS) was added to each well and thoroughly mixed. PLE (Sigma, 46058) dissolved in PBS at a concentration of 60 nM and 40 μL of this solution was added to the wells of a polypropylene 384-well plate (Greiner). Pro-fluorophore-containing and PLE-containing plates were placed in a Panoptic kinetic imaging plate reader (WaveFront Biosciences). Images were acquired at 1 Hz (excitation 480±20 nm and 540±30 nm) for 30 seconds, then 20 μL/well of the PLE solutions were added to the pro-fluorophore-containing plates and imaging continued for an additional 15 minutes. In addition to the pro-fluorophore-containing plates, a plate containing PBS only was imaged as was a plate containing a concentration series of Rhodamine 110.
# [2] = tested on: HEK293 cells stably expressing PLE; assay: Pro-fluorophore activation in PLE-expressing HEK293 cells (kinetic imaging plate reader); format: cell-based; conditions: for rank of fold increase in fluorescence in cells (in words) / Fold Increase in Fluorescence: 10 μM; for rank of fold increase in fluorescence in cells (in words): PLE-expressing vs wild-type HEK293 (Table 2); for Fold Increase in Fluorescence: PLE-expressing HEK293 divided by wild-type HEK293, 5 min after addition, mean (SEM) of 4 replicates
# Excerpt: Cell-based assays. To construct a PLE-expressing HEK293 cell line, a PLE-IRES-mCherry construct was excised from the pCAG-PLE-IRES-mCherry (Addgene plasmid #45766) vector using Not1-HF and Xho1 (Tian et al., Proceedings of the National Academy of Sciences, 2012, 109, 4756-4761). The PLE-IRES-mCherry insert was then cloned into pcDNA3.1/Zeo vector (Thermo Fisher Scientific). The pcDNA3.1/Zeo PLE-IRES-mCherry vector was introduced to HEK293 (ATCC) using FuGENE HD (Promega). PLE-expressing cells were selected for using Zeocin.
# (§1) Wild-type HEK293 and PLE-expressing HEK293 cells maintained in α-MEM (Corning) containing 10% vol/vol fetal bovine serum (Thermo-Fisher Scientific) and 1% vol/vol GlutaGro (Corning) (cell culture medium) were seeded with 20,000 cells/well in 20 μL of cell culture medium into amine-coated, clear-bottom, and black-walled 384-well plate (BD Biosciences). Plates were then incubated overnight at 37° C. in a 5% CO2 cell culture incubator. Following overnight incubation, cell culture medium was removed and replaced with 20 μL/well assay buffer. Rhodamine-amide profluorophores dissolved in DMSO at 10 mM were diluted into assay buffer at concentrations ranging from 50 μM-70 nM. Forty μL/well of pro-fluorophore solutions were placed in polypropylene 384-well plates (Greiner). Immediately before the beginning of data acquisition, the assay buffer was removed from the cell-containing plates. The cell-containing and pro-fluorophore containing plates where then immediately loaded into a Panoptic kinetic imaging plate reader. Images were acquired at 1 Hz (excitation 480±20 nm and 540±30 nm) for 30 seconds, then 20 μL/well of the pro-fluorophore solutions were added to the cell-containing plates and imaging continued for an additional 15 minutes.
# wild-type HEK293 cells [3] = assay: Pro-fluorophore activation in wild-type HEK293 cells (kinetic imaging plate reader); format: cell-based; conditions: 3 μM (FIG. 3A)
# Procedure: as §1
# wild-type HEK293 cells [4] = assay: Confocal fluorescence microscopy of wild-type HEK293 cells; format: cell-based; conditions: treated 1 h at 22° C. (FIG. 4 panels d-f)
# Procedure: (§2) Microscopy. Confocal images were acquired using a Nikon MR (Nikon Instruments) laser scanning confocal microscope equipped with plan apochromat violet corrected 1.4 numerical aperture (N.A.) oil immersion lens. Hoescht images were obtained using a 405 nm laser and 425-475 nm emission filter. Pro-fluorophore (1c) was imaged using a 488 nm laser and 500-550 nm emission filter. Cells for imaging study were cultured overnight on no. 1 chambered slides (lab-tek II, ThermoFisher) in medium previously described in kinetic imaging assays. Medium was removed and pro-fluorophore was added to the slide chambers in assay buffer containing Hoescht, 1 μg/mL. […]
# [5] = tested on: HEK293 cells expressing PLE; assay: Confocal fluorescence microscopy of PLE-expressing HEK293 cells; format: cell-based; conditions: treated 1 h at 22° C. (FIG. 4 panels a-c)
# Procedure: as §2
# [6] = listed as N,N′-dipropionyl rhodamine
Compound,conversion to the fluorescent Rhodamine 110 by PLE (in words) [1],Km [1] [µM],quality as PLE substrate (in words) [1],rank of fold increase in fluorescence in cells (in words) [2],Fold Increase in Fluorescence [2],other results
"O=C1OC2(c3ccc(NC(=O)C(F)(F)F)cc3Oc3cc(NC(=O)C(F)(F)F)ccc32)c2ccccc21 [Compound 1a, N,N′ bis-triflouroacetyl rhodamine]",most effective conversion,2.06,good PLE substrates,largest fold increase in fluorescence,5701 (±26.4),"quality as PLE substrate (in words) ([1]; listed as N,N′-ditrifluoroacetyl): better substrates than the others; rank of fold increase in fluorescence in cells (in words) ([2]; listed as N,N′-ditrifluoroacetyl rhodamine): largest increase in fluorescence"
"CC(=O)Nc1ccc2c(c1)Oc1cc(NC(C)=O)ccc1C21OC(=O)c2ccccc21 [Compound 1b, N,N′-bis-acetyl rhodamine]",–,–,less preferred substrate; also recorded: poor substrate,–,37 (±0.2),–
"CCC(=O)Nc1ccc2c(c1)Oc1cc(NC(=O)CC)ccc1C21OC(=O)c2ccccc21 [Compound 1c, N,N′-bis-propionyl rhodamine]",most effective conversion,–,good PLE substrates,largest fold increase in fluorescence,725 (±2.1),"fluorescence upon addition to wild-type HEK293 cells (in words) (wild-type HEK293 cells [3]): no increase in fluorescence was observed; confocal fluorescence in wild-type HEK293 cells (in words) (wild-type HEK293 cells [4]): no fluorescence was observed; quality as PLE substrate (in words) [1, 6]: better substrates than the others; fluorescence upon addition to PLE-expressing HEK293 cells (in words) ([2]; 3 μM, 384-well plate (FIG. 3A)): rapid increase in fluorescence; confocal fluorescence in PLE-expressing HEK293 cells (in words) [5]: bright, predominantly cytoplasmic, fluorescence; confocal fluorescence in PLE-expressing HEK293 cells (in words) [5, 6]: bright, cytoplasmic fluorescence"
"CC(C)C(=O)Nc1ccc2c(c1)Oc1cc(NC(=O)C(C)C)ccc1C21OC(=O)c2ccccc21 [Compound 1d, N,N′-bis-isobutyl rhodamine]",–,–,–,–,458 (±1.6),–
"CC(C)(C)C(=O)Nc1ccc2c(c1)Oc1cc(NC(=O)C(C)(C)C)ccc1C21OC(=O)c2ccccc21 [Compound 1e, N,N′-bis-pivaloyl rhodamine]",–,–,–,–,87 (±0.4),–
"O=C(Nc1ccc2c(c1)Oc1cc(NC(=O)c3ccccc3)ccc1C21OC(=O)c2ccccc21)c1ccccc1 [Compound 1f, N,N′-bis-benzoyl rhodamine]",–,7.45,–,–,119 (±1.2),–
